Laboratory results reported in patent publication US8106197B2, “Aminoheteroaryl compounds as protein kinase inhibitors” (Pfizer Inc., priority 2003, dated 2012).

Molecular target: T1, HGFR (Homo sapiens, UniProt P08581)
T1 construct: purchased Upstate 14-526
Test: HGFR continuous-coupled spectrophotometric assay
Format: biochemical
Settings: not given

T1 sequence (P08581 974-1390 limits assumed): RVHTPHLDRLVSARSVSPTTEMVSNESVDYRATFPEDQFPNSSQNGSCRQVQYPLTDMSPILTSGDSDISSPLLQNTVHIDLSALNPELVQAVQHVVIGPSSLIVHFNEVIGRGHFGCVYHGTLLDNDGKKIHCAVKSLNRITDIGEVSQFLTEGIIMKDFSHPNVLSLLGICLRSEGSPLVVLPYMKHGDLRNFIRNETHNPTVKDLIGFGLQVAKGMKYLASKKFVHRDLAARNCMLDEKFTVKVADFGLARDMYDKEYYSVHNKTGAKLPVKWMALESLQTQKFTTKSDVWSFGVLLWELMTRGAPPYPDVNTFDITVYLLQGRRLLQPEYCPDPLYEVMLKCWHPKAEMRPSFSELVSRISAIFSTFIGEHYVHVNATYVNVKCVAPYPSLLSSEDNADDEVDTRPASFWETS

% inhibition | Structure (SMILES)
% inhibition = 19 | Nc1ncc(-c2ccc(C(=O)N3CCC(N4CCCC4)CC3)cc2)cc1OCc1cc(Cl)cc(Cl)c1
% inhibition = 26 | Nc1ncc(-c2ccc(C(=O)N3CCC(N4CCCC4)CC3)cc2)cc1OCc1cc(F)ccc1C(F)(F)F
% inhibition = 10 | CC(Oc1cc(-c2ccc(C(=O)N3CCC(N4CCCC4)CC3)cc2)cnc1N)c1ccccc1 (centres unmarked)
% inhibition = 15 | CCc1ccc(COc2cc(-c3ccc(C(=O)N4CCC(N5CCCC5)CC4)cc3)cnc2N)nc1
% inhibition = 9 | CCc1ccn2cc(COc3cc(-c4ccc(C(=O)N5CCC(N6CCCC6)CC5)cc4)cnc3N)nc2c1
% inhibition = 77 | N#Cc1ccccc1-c1ccc(COc2cc(-c3ccc(C(=O)N4CCC(N5CCCC5)CC4)cc3)cnc2N)cc1
% inhibition = 37 | Nc1ncc(-c2ccc(C(=O)N3CCC(N4CCCC4)CC3)cc2)cc1OCc1csc2ccc(Cl)cc12
% inhibition = 2 | Nc1ncc(-c2ccc(C(=O)N3CCC(N4CCCC4)CC3)cc2)cc1OCc1nc(-c2ccccc2)n[nH]1
% inhibition = 6 | Cc1nc(COc2cc(-c3ccc(C(=O)N4CCC(N5CCCC5)CC4)cc3)cnc2N)cs1
% inhibition = 31 | Nc1ncc(-c2ccc(C(=O)N3CCC(N4CCCC4)CC3)cc2)cc1OCc1c(F)cccc1C(F)(F)F
% inhibition = 11 | Nc1ncc(-c2ccc(C(=O)N3CCC(N4CCCC4)CC3)cc2)cc1OCc1ccc(C(=O)NCCN2CCOCC2)cc1
% inhibition = 10 | COc1cc(COc2cc(-c3ccc(C(=O)N4CCC(N5CCCC5)CC4)cc3)cnc2N)cc(OC)c1OC
% inhibition = 17 | Nc1ncc(-c2ccc(C(=O)N3CCC(N4CCCC4)CC3)cc2)cc1OCc1nc2ccccc2s1
% inhibition = 15 | Nc1ncc(-c2ccc(C(=O)N3CCC(N4CCCC4)CC3)cc2)cc1OCc1ccc(C(=O)NCc2cccnc2)cc1
% inhibition = 24 | Nc1ncc(-c2ccc(C(=O)N3CCC(N4CCCC4)CC3)cc2)cc1OCc1ccc(C(=O)NC2CCN(Cc3ccccc3)C2)cc1 (centres unmarked)
% inhibition = 11 | Nc1ncc(-c2ccc(C(=O)N3CCC(N4CCCC4)CC3)cc2)cc1OCc1ccc(C(=O)NCCCN2CCCC2=O)cc1
% inhibition = 13 | Nc1ncc(-c2ccc(C(=O)N3CCC(N4CCCC4)CC3)cc2)cc1OCc1ccc(F)c(C(F)(F)F)c1
% inhibition = 30 | Nc1ncc(-c2ccc(C(=O)N3CCC(N4CCCC4)CC3)cc2)cc1OCc1c(F)ccc(F)c1F
% inhibition = 25 | Nc1ncc(-c2ccc(C(=O)N3CCC(N4CCCC4)CC3)cc2)cc1OCc1ccc(C(F)(F)F)cc1F
% inhibition = 19 | CC(C)Oc1cc(C(F)(F)F)nc2ccc(COc3cc(-c4ccc(C(=O)N5CCC(N6CCCC6)CC5)cc4)cnc3N)cc12
% inhibition = 12 | Nc1ncc(-c2ccc(C(=O)N3CCC(N4CCCC4)CC3)cc2)cc1OCc1cscn1
% inhibition = 22 | Nc1ncc(-c2ccc(C(=O)N3CCC(N4CCCC4)CC3)cc2)cc1OCc1cccc2cccnc12
% inhibition = 14 | Nc1ncc(-c2ccc(C(=O)N3CCC(N4CCCC4)CC3)cc2)cc1OCc1cccc(C(=O)NCc2cccnc2)c1
% inhibition = 9 | N#Cc1nc(COc2cc(-c3ccc(C(=O)N4CCC(N5CCCC5)CC4)cc3)cnc2N)cnc1N
% inhibition = 18 | CCN1CCCC1CNC(=O)c1ccc(COc2cc(-c3ccc(C(=O)N4CCC(N5CCCC5)CC4)cc3)cnc2N)cc1 (centres unmarked)
% inhibition = 19 | Nc1ncc(-c2ccc(C(=O)N3CCC(N4CCCC4)CC3)cc2)cc1OCc1nnnn1Cc1ccccc1

Same assay, conditions: Table 3; Ki(μM) or I(%); test concentration not given

I(%) | Structure (SMILES)
2 | CC(Oc1cc(-c2ccc(C(=O)N3C[C@@H](C)N[C@@H](C)C3)cc2)cnc1N)c1cccc(C(F)(F)F)c1 (some centres unmarked) [Example I-617, (4-{6-Amino-5-[1-(3-trifluoromethyl-phenyl)-ethoxy]-pyridin-3-yl]-phenyl)-(3,5-dimethyl-piperazin-1-yl)-methanone]
0 | CC(Oc1cc(-c2ccc(C(=O)N3CCC(N4CCCC4)CC3)cc2)cnc1N)c1ccc(C(=O)NCCCN2CCCC2=O)cc1 (centres unmarked) [Example I-632, 4-(1-{2-Amino-5-[4-(4-pyrrolidin-1-yl-piperidine-1-carbonyl)-phenyl)-pyridin-3-yloxy}-ethyl)-[3-(2-oxo-pyrrolidin-1-yl)-propyl]-benzamide]
0 | CC(Oc1cc(CNC2CCN(Cc3ccccc3)C2)cnc1N)c1c(Cl)ccc(F)c1Cl (centres unmarked) [Example I-608, 5-[(1-Benzyl-pyrrolidin-3-ylamino)-methyl]-3-[1-(2,6-dichloro-3-fluoro-phenyl)-ethoxy]-pyridin-2-ylamine]
29 | Nc1ncc(-c2ccc(C(=O)N3CCC(N4CCCC4)CC3)cc2)cc1OCc1ccccc1 [Example I-649, [4-(6-Amino-5-benzyloxy-pyridin-3-yl)-phenyl]-(4-pyrrolidin-1-yl-piperidin-1-yl)-methanone]
16 | C[C@@H]1CN(C(=O)c2ccc(-c3cnc(N)c(OCc4cccc(F)c4C(F)(F)F)c3)cc2)C[C@H](C)N1 [Example I-619, {4-[6-Amino-5-(3-fluoro-2-trifluoromethyl-benzyloxy)-pyridin-3-yl]-phenyl}-(3,5-dimethyl-piperazin-1-yl)-methanone]

Same assay, conditions: Table 5; percent c-MET inhibition at 50 nM

inhibition at 0.05 µM [%] | Structure (SMILES)
67 | COc1ccc(C(NC(=O)c2ccc(-c3cnc(N)c(OC(C)c4c(Cl)ccc(F)c4Cl)c3)cc2)C2CC2)cc1 (centres unmarked)
77 | CC(=O)NC1CCN(C(=O)c2ccc(-c3cnc(N)c(OC(C)c4c(Cl)ccc(F)c4Cl)c3)cc2)C1 (centres unmarked)

Same assay, conditions: Table 6; percent c-MET inhibition at 1 μM; read-out: % inhibition

inhibition at 1 µM [%] | Structure (SMILES)
20 | COCCNC(=O)C1CCCN(C(=O)c2cnc(N)c(OCc3c(Cl)cccc3Cl)c2)C1 (centres unmarked)
12 | NC(=O)c1ccc(CC2CCN(C(=O)c3cnc(N)c(OCc4c(Cl)cccc4Cl)c3)CC2)cc1
37 | Nc1ncc(C(=O)NCc2ccc(F)cc2Cl)cc1OCc1c(Cl)cccc1Cl
31 | Cc1ccc(F)c(CNC(=O)c2cnc(N)c(OCc3c(Cl)cccc3Cl)c2)c1F
24 | CC(C)(O)c1ccc(CNC(=O)c2cnc(N)c(OCc3c(Cl)cccc3Cl)c2)cc1
27 | COc1ccc(C(NC(=O)c2cnc(N)c(OCc3c(Cl)cccc3Cl)c2)C2CC2)cc1 (centres unmarked)
26 | Nc1ncc(C(=O)NCc2noc(C(=O)N3CCC(CO)CC3)n2)cc1OCc1c(Cl)cccc1Cl
32 | Nc1ncc(C(=O)NCC(O)CN2CCC(Cc3ccccc3)CC2)cc1OCc1c(Cl)cccc1Cl (centres unmarked)
33 | Nc1ncc(C(=O)N2CCN(CCOCCO)CC2)cc1OCc1c(Cl)cccc1Cl
35 | Nc1ncc(C(=O)NC2CCSC2=O)cc1OCc1c(Cl)cccc1Cl (centres unmarked)
33 | Nc1ncc(C(=O)NCCc2ccccc2F)cc1OCc1c(Cl)cccc1Cl
18 | CCCCOc1ccc(CNC(=O)c2cnc(N)c(OCc3c(Cl)cccc3Cl)c2)cc1
26 | Nc1ncc(C(=O)NCc2noc(C(=O)N3CC[C@H](O)C3)n2)cc1OCc1c(Cl)cccc1Cl
21 | Nc1ncc(C(=O)N2CCCC(C(=O)N3CCOCC3)C2)cc1OCc1c(Cl)cccc1Cl (centres unmarked)
41 | Nc1ncc(C(=O)N2CCC(Cc3ccc(F)cc3)CC2)cc1OCc1c(Cl)cccc1Cl
15 | Cc1ccc(N2CCN(CCCCNC(=O)c3cnc(N)c(OCc4c(Cl)cccc4Cl)c3)CC2)cc1
34 | Nc1ncc(C(=O)NCCCN2CCCC2=O)cc1OCc1c(Cl)cccc1Cl
